Test results taken from patent publication US20250346564A1 (ARase Therapeutics Inc., priority 2022, published 2025).

Target: PARG (Homo sapiens (Human), UniProt Q86W56)
Assay: PARG TFMU assay (4-(trifluoromethyl)umbelliferone substrate)
Type: biochemical
Conditions: PARG 250 pM or 2 nM, 10-point dose response
Description: Example C. Inhibition of PARG TEMU Assay
The ability of the compounds of the Examples to inhibit PARG activity in 4. (trifluoromethyl)umbelliferone (TFMU) assay was determined as described below. PARG inhibitors were added into 384 well plate for a 10-point dose response curve at 1:3 dilutions. TFMU PARG substrate and PARG (250 pM or 2 nM) were then added to the plate to initiate enzymatic reaction. After incubation with the reagent, […] was read. IC50 values were calculated using set control points for 100% inhibition as no enzyme and 0% inhibition 250 pM or 2 nM of PARG enzyme.

PARG, sequence (Q86W56 whole entry): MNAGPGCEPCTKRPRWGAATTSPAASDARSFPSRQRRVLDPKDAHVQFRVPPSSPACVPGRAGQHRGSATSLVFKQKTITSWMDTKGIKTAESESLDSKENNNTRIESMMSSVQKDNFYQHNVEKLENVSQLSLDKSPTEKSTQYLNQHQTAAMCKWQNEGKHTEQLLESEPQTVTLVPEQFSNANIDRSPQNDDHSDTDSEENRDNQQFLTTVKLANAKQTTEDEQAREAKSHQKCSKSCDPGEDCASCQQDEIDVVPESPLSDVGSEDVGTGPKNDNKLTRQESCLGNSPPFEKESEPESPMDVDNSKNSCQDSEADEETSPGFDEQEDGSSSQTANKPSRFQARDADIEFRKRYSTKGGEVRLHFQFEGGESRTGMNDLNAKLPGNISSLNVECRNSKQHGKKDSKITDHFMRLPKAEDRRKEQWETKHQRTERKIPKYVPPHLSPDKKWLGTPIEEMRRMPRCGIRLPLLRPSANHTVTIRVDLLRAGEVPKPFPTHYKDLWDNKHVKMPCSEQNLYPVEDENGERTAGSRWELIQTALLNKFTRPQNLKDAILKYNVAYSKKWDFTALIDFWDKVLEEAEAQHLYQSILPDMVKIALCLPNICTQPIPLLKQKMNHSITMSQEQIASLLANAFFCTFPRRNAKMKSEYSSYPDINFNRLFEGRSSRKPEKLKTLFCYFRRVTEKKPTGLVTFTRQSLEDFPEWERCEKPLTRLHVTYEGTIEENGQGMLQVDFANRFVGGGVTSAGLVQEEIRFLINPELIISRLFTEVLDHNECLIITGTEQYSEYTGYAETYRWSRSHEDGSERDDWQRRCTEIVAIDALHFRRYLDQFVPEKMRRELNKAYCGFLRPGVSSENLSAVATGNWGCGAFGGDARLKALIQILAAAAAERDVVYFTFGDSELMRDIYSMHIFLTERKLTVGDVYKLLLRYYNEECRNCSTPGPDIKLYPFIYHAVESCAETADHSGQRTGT

IC50 [nM]	SMILES
< 50	Cc1ncc(Cn2c(=O)c3cc(S(=O)(=O)NC4(CF)COC4)ccc3n(Cc3sc(C)nc3C)c2=O)s1 [Example 28B, 1-((2,4-dimethylthiazol-5-yl)methyl)-N-(3-(fluoromethyl)oxetan-3-yl)-3-((2-methylthiazol-5-yl)methyl)-2,4-dioxo-1,2,3,4-tetrahydroquinazoline-6-sulfonamide]
500 to 5000	CC1(NS(=O)(=O)c2cc(Cl)c3cnn(-c4nnc(C(F)F)s4)c3c2)CC1CCO (centres unmarked) [Example 65, 4-chloro-1-(5-(difluoromethyl)-1,3,4-thiadiazol-2-yl)-N-(2-(2-hydroxyethyl)-1-methylcyclopropyl)-1H-indazole-6-sulfonamide]
≥ 5000	Cn1ncc2ccc(S(=O)(=O)NC3(C)COC3)cc21 [Example 72, 1-methyl-N-(3-methyloxetan-3-yl)-1H-indazole-6-sulfonamide]
< 50	CN(CC(F)F)C(=O)N1CCN(c2cc(S(=O)(=O)NC3(C#N)COC3)cc3c2cnn3-c2nnc(C(F)F)s2)CC1 [Example 41, 4-(6-(N-(3-cyanooxetan-3-yl)sulfamoyl)-1-(5-(difluoromethyl)-1,3,4-thiadiazol-2-yl)-1H-indazol-4-yl)-N-(2,2-difluoroethyl)-N-methylpiperazine-1-carboxamide]
≥ 5000	CCn1c(=O)c2cc(S(=O)(=O)N[C@H]3CC[C@@H]3CO)ccc2n(CC)c1=O (single isomer, unassigned) [Example 75]
50 to 500	CC1OCC1(C)NS(=O)(=O)c1cc(Cl)c2cnn(-c3nnc(C(F)F)s3)c2c1 (centres unmarked) [Example 71, 4-chloro-1-(5-(difluoromethyl)-1,3,4-thiadiazol-2-yl)-N-(2,3-dimethyloxetan-3-yl)-1H-indazole-6-sulfonamide]
50 to 500	Cc1ncc(Cn2c(=O)[nH]c3ccc(S(=O)(=O)NC4(C#N)COC4)cc3c2=O)s1 [Example 25A, N-(3-cyanooxetan-3-yl)-3-((2-methylthiazol-5-yl)methyl)-2,4-dioxo-1,2,3,4-tetrahydroquinazoline-6-sulfonamide]
< 50	CC(C)C(=O)N1CCN(c2cc(S(=O)(=O)N[C@@]3(C)CO[C@H]3C)cc3c2cnn3-c2nnc(C(F)F)s2)CC1 (single isomer, unassigned) [Example 27]
≥ 5000	C=C[C@@H]1C[C@]1(C#N)NS(=O)(=O)c1ccc2c(c1)c(=O)n(CC)c(=O)n2CC (single isomer, unassigned) [Example 51]
< 50	CC(C)C(=O)N1CCN(c2cc(S(=O)(=O)NC3(CF)COC3)cc3c2cnn3-c2nncs2)CC1 [Example 44, N-(3-(fluoromethyl)oxetan-3-yl)-4-(4-isobutyrylpiperazin-1-yl)-1-(1,3,4-thiadiazol-2-yl)-1H-indazole-6-sulfonamide]
< 50	N#CC1(NS(=O)(=O)c2cc(N3CCN(C(=O)N4CCCC4)CC3)c3cnn(-c4nnc(C(F)F)s4)c3c2)COC1 [Example 38, N-(3-cyanooxetan-3-yl)-1-(5-(difluoromethyl)-1,3,4-thiadiazol-2-yl)-4-(4-(pyrrolidine-1-carbonyl)piperazin-1-yl)-1H-indazole-6-sulfonamide]
< 50	CC(C)S(=O)(=O)N1CCN(c2cc(S(=O)(=O)NC3(C)COC3)cc3c2cnn3-c2nnc(C(F)F)s2)CC1 [Example 33, 1-(5-(difluoromethyl)-1,3,4-thiadiazol-2-yl)-4-(4-(isopropylsulfonyl)piperazin-1-yl)-N-(3-methyloxetan-3-yl)-1H-indazole-6-sulfonamide]
500 to 5000	CCn1c(=O)c2cc(S(=O)(=O)N[C@@]3(C#N)CO[C@H]3C)ccc2n(CC)c1=O (single isomer, unassigned) [Example 61]
≥ 5000	CCn1c(=O)c2cc(S(=O)(=O)N[C@@H]3CC[C@H]3CO)ccc2n(CC)c1=O (single isomer, unassigned) [Example 74]
